Experimental data published in US20180318199A1, “Pharmaceutical Composition Having Anti-Aging Properties against High-Glucose” (TAIWAN LEADER BIOTECH CORP., priority 2017, published 2018).
“Also recorded” adds a separate entry of the source.

Assays:
Format in all cases: cell-based, human
[1] = system: pRb, cyclin D1, cyclin E, cyclin B1, CDK4, CDK6, CDK2 and Cdc2; assay: Western blot of cell-cycle regulatory proteins in HNDFs; conditions: 72 h; for cyclin D1, CDK4, CDK6, cyclin E and CDK2 protein levels under HG: ANM 10 μM or NAC 100 μM + HG 30 mM
Description: To further clarify this effect, G1-S transition regulatory proteins are determined by immunoblotting. In FIG. 3B, western blot analysis is performed to determine the expression levels of cell-cycle regulatory proteins including, pRb, cyclin D1, cyclin E, cyclin B1, CDK4, CDK6, CDK2 and Cdc2; and GAPDH is served as an internal control.
(§1) Cells are lysed by either RIPA lysis buffer or nuclear and cytoplasmic extraction reagents (Thermo Fisher Scientific). Protein concentrations are determined by Bio-Rad protein assay reagent (Bio-Rad Laboratories, Hercules, Calif.). Equal amounts of protein samples (60 μg) are separated by 7-12% SDS-PAGE and the separated proteins are transferred onto polyvinylidene […] (PVDC) membrane overnight. The transferred protein membranes are blocked with 5% non-fat dried milk for 30 min, followed by incubation with specific primary antibodies overnight, and either horseradish peroxidase-conjugated goat anti-rabbit or anti-mouse antibodies for 2 h. The blots are detected using VL Chemi-Smart 3000 (Viogene Biotek, Sunnyvale, Calif.) with the enhanced chemiluminescence (ECL) western blotting reagent (Millipore, Billerica, Mass.).

[2] = system: p53 and FoxO1; assay: Western blot of p53 and FoxO1 acetylation/phosphorylation in HNDFs; conditions: for HG-induced p53 phosphorylation at Ser15: ANM 10 μM or NAC 100 μM + HG 30 mM; for total p53 and FoxO1 levels: HNDFs, with or without HG; for protection against HG-induced decrease in FoxO1 phosphorylation: co-treatment with HG 30 mM
Description: It is well known that p16^INK4A and p21^CIP1 are regulated by transcription factors p53 and FoxO1 followed by acetylation. […] In addition, p53 phosphorylation at Ser15 by their upstream kinases promotes transcriptional activation in response to DNA damage.
To further examine the phenomenon that HG-induced p53 activation is relayed by the p38 MAPK or JNK/SAPK cascade, cells are incubated with corresponding pharmacological inhibitors, SB203580, SP600125, PD98059 and LY294002 for p38MAPK, JNK/SAPK, ERK1/2 and P13K/AKT, respectively in the presence of HG.
The protein expression levels of SIRT-1, SIRT-6, p21^CIP1, SMP30, p53, FoxO and acetylation of p53 and FoxO1 are determined by western blot analysis.
as §1

[3] = system: p38 MAPK, JNK/SAPK, AKT and ERK1/2; assay: Western blot of MAPK and AKT activation in HNDFs; conditions: ANM 10 μM or NAC 100 μM + HG 30 mM
Description: Next, the possible upstream regulators of p53 activation are examined. Previous studies have shown that p38 MAPK mediated p53 activation in response to intracellular ROS generation. In FIG. 4F, this effect is further extended to its upstream regulator p38 MAPK.
as §1

[4] = system: Nrf2; assay: ARE luciferase reporter assay (Nrf2 transcriptional activity) in HNDFs; conditions: 6 h; for relative ARE luciferase activity, co-treated with HG: ANM 10 μM or NAC 100 μM + HG 30 mM, HG alone 2.5-fold; for relative ARE luciferase activity, compound alone: ANM 10 μM or NAC 100 μM, control 1-fold, HG 2.5-fold
Description: Therefore, to determine whether ANM augments Nrf2 transcriptional activity, ARE-harboring luciferase reporter assay is used. In FIG. 5E, to determine the Nrf2 transcriptional activity, HNDFs are transiently transfected with ARE promoter construct using lipofectamine and incubated with ANM (10 μM) or NAC (100 μM) in the presence or absence of HG (30 mM) for 6 h. Cell lysates are mixed with luciferase reagents and quantified using an illuminometer. Relative ARE promoter activity is calculated by dividing the relative luciferace unit (RLU) of treated cells by RLU of untreated cells (NG).
Activation of P13K/AKT and mitogen-activated protein kinases (MAPKs), including ERK1/2, JNK/SAPK and p38 MAPK, facilitates Nrf2 transcriptional activation in a variety of human cell lines. […] To elucidate the upstream signaling events involved in ANM-induced Nrf2 transcriptional activity, cells are pre-incubated with pharmacological inhibitors of P13K/AKT (LY294002), ERK1/2 (PD98059), SAPK/JNK (SP600125) and p38MAPK (SB203580) for 2 h and treated with ANM for 6 h in the presence of HG. In FIG. 5G, HNDFs are pre-incubated with AKT, ERK1/2, JNK/SAPK and p38 MAPK inhibitors, including LY294002 (LY, 30 μM), PD98059 (PD, 30 μM), SP600125 (SP, 30 μM) and SB203580 (SB, 30 μM), respectively, for 2 h and then incubated with ANM (10 μM) in the presence of HG (30 mM) for 6 h. Cytoplasmic and nuclear fractions are prepared and subjected to western blot analysis. GAPDH and histone H3 are served as internal controls for the cytoplasmic and nuclear fraction, respectively.
ARE promoter activity is measured using a dual-luciferase reporter assay system (Promega, Madison, Wis.). […] Cells are then transfected with ARE plasmid (Qiagen, Hilden, Germany) using Lipofectamine 2000 (Invitrogen) and incubated for 36 h. […] The cell lysate is prepared and incubated with luciferase agents and the relative luminescence intensity is quantified using a spectrophotometer (Hidex Oy, Turku, Finland).

[5] = system: Nrf2; assay: Nrf2 nuclear localization by immunofluorescence in HNDFs; conditions: ANM 10 μM or NAC 100 μM, 2 h
Description: Transcriptional activation of Nrf2 is dependent upon the rate of […] followed by disassociation from cytoplasmic Keap-1. In FIG. 5F, to determine the nuclear localization of Nrf2, HNDFs are incubated with ANM (10 μM) or NAC (100 μM) in the presence or absence or HG (30 mM) for 2 h. The protein expression and localization of Nrf2 are measured by immunofluorescence using Nrf2 specific primary antibody and fluorescein isothiocyanate-conjugated secondary antibody (green). The subcellular and nuclear localization of Nrf2 is photographed using a fluoroscence microscope. DAPI (1 μM) is used to stain the nucleus.
HNDFs at a density of 1×10^4 cells/well are cultured in an eight-well glass Nunc Lab-Tek chamber (ThermoFisher Scientific, Waltham, Mass.). Cells are treated with ANM or NAC in the presence or absence of HG for 2-72 h. After incubation, culture medium is removed and cells are fixed in 4% paraformaldehyde for 15 min, permeabilized with 0.1% Triton X-100 for 10 min, washed and blocked with 10% FBS in PBS, and then incubated overnight with the corresponding primary antibodies in 1.5% FBS. […] Next, the cells are stained with 1 μg/mL 4′,6-diamidino-2-phenylindole (DAPI, Cell Signaling Technology) for 5 min, washed with PBS, and visualized using a fluorescence microscope (Motic Electric Group) at 40× magnification.

C=C(CCC(C)C1CCC2C3=C(C(=O)C(O)C21C)C1(C)CCC(O)C(C)C1CC3)C(C)C(=O)O (stereo not shown) [ANM, antcin M]
cyclin B1 and Cdc2 levels ([1]; ANM 10 μM + HG 30 mM): unaffected
protein Rb phosphorylation under HG ([1]; ANM 10 μM + HG 30 mM): significantly inhibits
cyclin D1, CDK4, CDK6, cyclin E and CDK2 protein levels under HG [1]: upregulated
HG-induced p53 and FoxO1 acetylation ([2]; ANM 10 μM + HG 30 mM, 72 h): barely observed
HG-induced p21^CIP1 expression and acetylation in p53 and FoxO1, control siRNA cells ([2]; ANM 10 μM + HG, 72 h): significantly attenuated
p21^CIP1 expression, p53/FoxO1 deacetylation, SMP30 upregulation in SIRT-1 silenced cells ([2]; ANM 10 μM + HG, 72 h, siSIRT-1): fails to inhibit
HG-induced p53 phosphorylation at Ser15 [2]: significantly blocked
total p53 and FoxO1 levels [2]: neither ANM nor NAC affected
protection against HG-induced decrease in FoxO1 phosphorylation [2]: fails to protect
HG-induced JNK/SAPK activation [3]: significantly prevents
HG-induced activation of p38 MAPK [3]: significantly prevents
HG-mediated decrease in AKT and ERK1/2 activity (phosphorylation) [3]: significantly rescues; also recorded: significantly blocked
relative ARE luciferase activity, co-treated with HG [4]: 8.5 fold
relative ARE luciferase activity, compound alone [4]: 5.8 fold
Nrf2 expression in the nucleus [5]: elevated Nrf2 expression in the nucleus

CC(=O)N[C@@H](CS)C(=O)O [NAC, N-acetylcysteine, reference compound]
cyclin D1, CDK4, CDK6, cyclin E and CDK2 protein levels under HG [1]: partially rescues
HG-induced p53 phosphorylation at Ser15 [2]: significantly blocked
total p53 and FoxO1 levels [2]: neither ANM nor NAC affected
protection against HG-induced decrease in FoxO1 phosphorylation [2]: fails to protect
HG-induced JNK/SAPK activation [3]: significantly prevents
HG-induced activation of p38 MAPK [3]: significantly prevents
HG-mediated decrease in AKT and ERK1/2 activity (phosphorylation) [3]: significantly rescues; also recorded: significantly blocked
relative ARE luciferase activity, co-treated with HG [4]: 8.2 fold
relative ARE luciferase activity, compound alone [4]: 6.3 fold
Nrf2 expression in the nucleus [5]: elevated Nrf2 expression in the nucleus
